Consider 1 compound from ChEMBL document CHEMBL1151402, “Normaytancyprine, A Minor Antileukemic Ansa Macrolide From Putterlickia verrucosa” (1982).

Each structure is given as a SMILES string. In brackets after ≈: the same amount, converted by molar mass.

One experiment deals with P388. The experiment is described as follows: In vivo cytotoxicity against mouse P388 cells at 0.4 to 12.5 mg/kg. The experiment is classed as functional. Conditions: dose mg/kg 0.4-12.5.
In another experiment the test system is KB. The experiment is described as follows: Cytotoxicity against human KB cells. The class given is functional. Conditions: read-out: ED50 (the source's name).

As usually defined, the T/C is the result in the treated group divided by that in the control group, in per cent. As to `COc1cc2cc(c1Cl)NC(=O)C[C@H](OC(=O)[C@H](C)N(C)C(=O)C1C(C)C1C)[C@]1(C)O[C@H]1[C@H](C)[C@@H]1C[C@@](O)(NC(=O)O1)[C@H](OC)/C=C/C=C(\C)C2` (some centres not stated) [NORMAYTANCYPRINE], the T/C in the experiment on P388 came to 145%. Moreover, the EC50 in the experiment with KB came to 0.001 ng/mL (≈ 0.00137 nM).
